In patent US10144742B2 (Millennium Pharmaceuticals, Inc., priority 2014, dated 2018):
Read-outs that look alike come from different tables or passages of the source.

Legend:
hNAMPT protein = hNAMPT protein (Homo sapiens (Human), UniProt P43490); experiment: NAMPT enzyme assay (TR-FRET/HTRF, BodiPY ligand, anti 6His-Tb); assay type: binding; conditions: for IC50: NAMPT IC50 range class, read-out: IC50; for inhibition at 1 µM: read-out: Percent Inhibition
Outline: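 TR-FRET binding assay in which His-tagged human NAMPT with anti-6His-Tb is displaced by compound from a BodiPY ligand, incubated 1 h at rt in the dark. Excitation was at 320 nm, with the 520/486 nm emission ratio read. IC50 was fitted from inhibition relative to DMSO controls.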

PC3 cells = experiment: PC3 growth inhibition (Cell-titer glo, 72 hours); assay type: cell-based; conditions: Homo sapiens, PC-3, PC3 cells, 72 hours, Cell-titer glo, read-out: Percent Inhibition (PC3 growth inhibition); for inhibition at 1 µM: compound concentration 1 μM; for inhibition at 1.667 µM: compound concentration 1.667 μM
Outline: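 PC3 cells in RPMI1640 seeded overnight at 37 °C, 5% CO2, then exposed to compound diluted in AIM serum-free medium for 72 h. Viability by CellTiter-Glo luminescence vs DMSO controls; single-concentration % remaining viability (1 μM or 1.667 μM), or GI50/LD50 from curves.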

Chain of hNAMPT protein (P43490 whole entry): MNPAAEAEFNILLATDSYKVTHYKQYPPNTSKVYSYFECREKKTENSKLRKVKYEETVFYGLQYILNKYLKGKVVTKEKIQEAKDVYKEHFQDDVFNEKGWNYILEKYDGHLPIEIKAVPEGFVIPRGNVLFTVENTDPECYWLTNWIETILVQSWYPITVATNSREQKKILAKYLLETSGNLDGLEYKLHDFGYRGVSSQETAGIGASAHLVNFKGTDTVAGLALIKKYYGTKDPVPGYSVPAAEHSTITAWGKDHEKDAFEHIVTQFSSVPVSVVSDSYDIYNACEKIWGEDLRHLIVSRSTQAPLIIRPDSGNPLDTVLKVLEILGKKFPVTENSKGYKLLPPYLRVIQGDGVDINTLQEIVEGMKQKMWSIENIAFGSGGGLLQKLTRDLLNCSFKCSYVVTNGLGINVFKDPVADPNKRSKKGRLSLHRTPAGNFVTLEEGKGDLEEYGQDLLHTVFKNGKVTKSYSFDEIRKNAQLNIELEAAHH

Row | Compound | IC50 (hNAMPT protein) [µM] | inhibition at 1 µM (hNAMPT protein; compound concentration 1 μM) [%] | inhibition at 1 µM (PC3 cells) [%] | inhibition at 1.667 µM (PC3 cells) [%] | inhibition at 1 µM (hNAMPT protein) [%]
1 | O=C(NCCCn1ccnc1)c1ccc2nc(N3CCC(O)CC3)c(-c3ccccc3)nc2c1 [Compound I-105, 2-(4-hydroxypiperidin-1-yl)-N-[3-(1H-imidazol-1-yl)propyl]-3-phenylquinoxaline-6-carboxamide] | < 0.1 | 92 | -7 |  | 
2 | N#CC1CCN(c2nc3ccc(C(=O)NCCCn4ccnc4)cc3nc2-c2ccccc2)C1 (stereo not drawn) [Compound I-106, 2-(3-cyanopyrrolidin-1-yl)-N-[3-(1H-imidazol-1-yl)propyl]-3-phenylquinoxaline-6-carboxamide] | 0.5 to 1 | 60 | -5 |  | 
3 | O=C(NCCCn1ccnc1)c1ccc2nc(-c3ccco3)c(-c3ccco3)nc2c1 [Compound I-107, 2,3-di(2-furyl)-N-[3-(1H-imidazol-1-yl)propyl]quinoxaline-6-carboxamide] | 1 to 2 | 47 | 102 |  | 
4 | Cn1ccc(CCNC(=O)c2ccc3nc(-c4ccc(F)cc4)c(-c4ccc(F)cc4)nc3c2)n1 [Compound I-108, 2,3-bis(4-fluorophenyl)-N-[2-(1-methyl-1H-pyrazol-3-yl)ethyl]quinoxaline-6-carboxamide] | 1 to 2 | 44 | 93 |  | 
5 | COc1nc2ccc(C(=O)NCCCc3ncc[nH]3)cc2nc1-c1ccc(Cl)cc1 [Compound I-109, 3-(4-chlorophenyl)-N-[3-(1H-imidazol-2-yl)propyl]-2-methoxyquinoxaline-6-carboxamide] | < 0.1 | 97 |  | 36 | 
6 | O=C(NCCCc1ncc[nH]1)c1ccc2nc(OC3CCOCC3)c(-c3ccc(Cl)cc3)nc2c1 [Compound I-111, 3-(4-chlorophenyl)-N-[3-(1H-imidazol-2-yl)propyl]-2-(tetrahydro-2H-pyran-4-yloxy)quinoxaline-6-carboxamide] | < 0.1 | 99 |  | 2 | 
7 | O=C(NCCCn1ccnc1)c1ccc2nc(N3CCC(N4CCNCC4)CC3)c(-c3ccccc3)nc2c1 [Compound I-112, N-[3-(1H-imidazol-1-yl)propyl]-3-phenyl-2-[4-(piperazin-1-yl)piperidin-1-yl]quinoxaline-6-carboxamide] | < 0.1 | 100 | -1 |  | 
8 | CC1(C)CN(c2nc3cc(C(=O)NCCCn4ccnc4)ccc3nc2-c2ccccc2)CCO1 [Compound I-113, 3-(2,2-dimethylmorpholin-4-yl)-N-[3-(1H-imidazol-1-yl)propyl]-2-phenylquinoxaline-6-carboxamide] | 0.5 to 1 | 64 | -8 |  | 
9 | O=C(NCCOc1cccnc1)c1ccc2nc(N3CCC(O)CC3)c(-c3ccc(F)cc3)nc2c1 [Compound I-114, 3-(4-Fluorophenyl)-2-(4-hydroxypiperidin-1-yl)-N-[2-(pyridin-3-yloxy)ethyl]quinoxaline-6-carboxamide] | < 0.1 |  |  | 2 | > 99
10 | C[C@@H]1CN(c2nc3ccc(C(=O)NCCCn4ccnc4)cc3nc2-c2ccccc2)C[C@H](C)O1 [Compound I-115, cis-2-[(2R,6S)-2,6-dimethylmorpholin-4-yl]-N-[3-(1H-imidazol-1-yl)propyl]-3-phenylquinoxaline-6-carboxamide] | < 0.1 | 100 | -8 |  | 
11 | O=C(NCCCc1ncc[nH]1)c1ccc2nc(N3CCCC3)c(-c3ccc(Cl)cc3)nc2c1 [Compound I-116, 3-(4-chlorophenyl)-N-[3-(1H-imidazol-2-yl)propyl]-2-(pyrrolidin-1-yl)quinoxaline-6-carboxamide] | < 0.1 | 98 |  | 2 | 
12 | O=C(NCCc1cccnc1)c1ccc2nc(-c3ccco3)c(-c3ccco3)nc2c1 [Compound I-117, 2,3-di(2-furyl)-N-[2-(pyridin-3-yl)ethyl]quinoxaline-6-carboxamide] | 2 to 10 | 22 | 97 |  | 
13 | O=C(NCCc1c[nH]cn1)c1ccc2nc(-c3ccccc3)c(-c3ccccc3)nc2c1 [Compound I-118, N-[2-(1H-imidazol-4-yl)ethyl]-2,3-diphenylquinoxaline-6-carboxamide] | 2 to 10 | 29 | 85 |  | 
14 | Cn1cc(-c2nc3ccc(C(=O)NCCCn4ccnc4)cc3nc2-c2ccccc2)cn1 [Compound I-119, N-[3-(1H-imidazol-1-yl)propyl]-2-(1-methyl-1H-pyrazol-4-yl)-3-phenylquinoxaline-6-carboxamide] | 0.5 to 1 | 58 | -8 |  | 
15 | NCc1cccc(-c2nc3cc(C(=O)NCCCn4ccnc4)ccc3nc2-c2ccccc2)c1 [Compound I-120, 3-[3-(Aminomethyl)phenyl]-N-[3-(1H-imidazol-1-yl)propyl]-2-phenylquinoxaline-6-carboxamide] | 2 to 10 |  | 1 |  | 47
16 | O=C(c1ccc2nc(-c3ccc(F)cc3)c(-c3ccc(F)cc3)nc2c1)N1CCc2nc[nH]c2C1 [Compound I-121, [2,3-bis(4-fluorophenyl)quinoxalin-6-yl](3,4,6,7-tetrahydro-5H-imidazo[4,5-c]pyridin-5-yl)methanone] | 2 to 10 | 12 | 99 |  | 
17 | O=C(NCCc1ncc[nH]1)c1ccc2nc(-c3ccc(F)cc3)c(-c3ccc(F)cc3)nc2c1 [Compound I-122, 2,3-Bis(4-fluorophenyl)-N-[2-(1H-imidazol-2-yl)ethyl]quinoxaline-6-carboxamide] | 2 to 10 | 60 |  | 4 | 
18 | NC(=O)c1cn2c(n1)CN(C(=O)c1ccc3nc(-c4ccc(F)cc4)c(-c4ccc(F)cc4)nc3c1)CC2 [Compound I-123, 7-{[2,3-bis(4-fluorophenyl)quinoxalin-6-yl]carbonyl}-5,6,7,8-tetrahydroimidazo[1,2-a]pyrazine-2-carboxamide] | 2 to 10 | 31 | 96 |  | 
19 | O=C(NCCCn1ccnc1)c1ccc2nc(-c3ccccc3)c(N3CCCC3)nc2c1 [Compound I-124, N-[3-(1H-imidazol-1-yl)propyl]-2-phenyl-3-(pyrrolidin-1-yl)quinoxaline-6-carboxamide] | 1 to 2 | 38 | 27 |  | 
20 | CS(=O)(=O)N1CCN(c2nc3ccc(C(=O)NCCCn4ccnc4)cc3nc2-c2ccccc2)CC1 [Compound I-125, N-[3-(1H-imidazol-1-yl)propyl]-2-[4-(methylsulfonyl)piperazin-1-yl]-3-phenylquinoxaline-6-carboxamide] | 0.1 to 0.5 | 73 | -7 |  | 
21 | CN(c1nc2cc(C(=O)NCCCn3ccnc3)ccc2nc1-c1ccccc1)C1CC1 [Compound I-126, 3-[cyclopropyl(methyl)amino]-N-[3-(1H-imidazol-1-yl)propyl]-2-phenylquinoxaline-6-carboxamide] | 2 to 10 | 12 | 93 |  | 
22 | CN1CCN(c2nc3cc(C(=O)NCCCn4ccnc4)ccc3nc2-c2ccccc2)CC1=O [Compound I-127, N-[3-(1H-imidazol-1-yl)propyl]-3-(4-methyl-3-oxopiperazin-1-yl)-2-phenylquinoxaline-6-carboxamide] | 2 to 10 | 16 | 95 |  | 
